From US3965109A, “Certain aryl amino pyridines” (priority 1971, dated 1976)

Experiments:
[1] = test system: Tetranychus telarius (red spider mites, eggs); test: Pest toxicity test; type: in vivo; details: 0.1% by weight; French bean; 3 days
[2] = test system: Xanthomonas malvacearum; test: Antibacterial agar test (B3); type: cell-based; details: 50 ppm; 5 days
Description: (§1) This Example illustrates the activity of compounds used as the active ingredients of compositions according to the invention against a variety of plant bacterial diseases and fungal post-harvest saprophytic diseases. In a test for such activity, 5 milligrams of the compound to be tested was dissolved or suspended in 10 ml. of acetone and enough of this solution or suspension was added to 18 ml. of nutrient agar (for the bacterial diseases) or 16 ml. of 2% malt agar (for the fungal diseases) to give a final concentration of 50 parts per million of the compound under test. A streptomycin preparation (2 ml. containing 100 units per ml.) was added to the malt agar to prevent bacterial contamination of the fungal tests.
(§2) The agar preparations were dried overnight in Petri dishes and inoculated the following morning with the bacterial or fungal diseases using a multipoint inoculator. The antibacterial activity was assessed after 5 days and the antifungal activity after 6 days. The results of the tests are set out in Table 16 (anti bacterial activity) and Table 17 (antifungal activity). The results are graded as in Example 1 above.

[3] = test system: Agrobacterium tumifaciens; test: Antibacterial agar test (B1); type: cell-based; details: 50 ppm; 5 days
[4] = test system: Aedes aegypti (mosquito adults); test: Pest toxicity test; type: in vivo; details: 0.01% by weight; plywood; 1 day
[5] = test system: Aphis fabae; test: Pest toxicity test; type: in vivo; details: 0.1% by weight; broad bean; 2 days
[6] = test system: Xanthomonas oryzae; type: cell-based; details: 50 ppm; 5 days
[7] = test system: Corynebacterium michiganense; test: Antibacterial agar test (B2); type: cell-based; details: 50 ppm; 5 days
Description: as §1, §2

[8] = test system: Tetranychus telarius (red spider mites, adults); test: Pest toxicity test; type: in vivo; details: 0.1% by weight; French bean; 3 days
[9] = test system: Megoura viceae; test: Pest toxicity test; type: in vivo; details: 0.1% by weight; broad bean; 2 days
[10] = test system: Plutella maculipennis (diamond back moth larvae); test: Pest toxicity test; type: in vivo
[11] = test system: Phaedon cochleariae (mustard beetles); test: Pest toxicity test; type: in vivo
[12] = test system: Musca domestica (houseflies); test: Pest toxicity test, contact test; type: in vivo; details: 0.1% by weight; milk/sugar; 2 days; flies sprayed directly
[13] = test system: Streptomyces scabies; test: Antibacterial agar test (B7); type: cell-based; details: 50 ppm; 5 days
[14] = test system: Aedes aegypti (mosquito larvae); test: Pest toxicity test; type: in vivo; details: for Mortality grading (kill): 0.01% by weight, water, 1 day
[15] = test system: Pseudomonas syringae; test: Antibacterial agar test (B6); type: cell-based; details: 50 ppm; 5 days
[16] = test system: Erwinia carotovora; test: Antibacterial agar test (B4); type: cell-based; details: 50 ppm; 5 days
[17] = test system: Plasmopara viticola (vine); test: Fungicidal test against foliar disease C (foliage spray plus soil drench); type: in vivo; details: 100 ppm spray and drench; 10 days
[18] = test system: Piricularia oryzae (rice); type: in vivo; details: 100 ppm spray and drench; 7 days
[19] = test system: Puccinia recondita (wheat); test: Fungicidal test against foliar disease A (foliage spray plus soil drench); type: in vivo; details: 100 ppm spray and drench; 10 days
[20] = test system: Pieris brassicae (cabbage white caterpillars); test: Pest toxicity test; type: in vivo; details: 0.1% by weight, 2 days
[21] = test system: Tomato; test: Herbicidal test, pre- and post-emergence; type: in vivo; details: 10 kg/ha; scale 0 to 3 (complete kill)
[22] = test system: Maize; test: Herbicidal test, pre- and post-emergence; type: in vivo; details: 10 kg/ha; scale 0 to 3 (complete kill)
[23] = test system: Wheat; test: Herbicidal test, pre- and post-emergence; type: in vivo; details: 10 kg/ha; scale 0 to 3 (complete kill)
[24] = test system: Lettuce; test: Herbicidal test, pre- and post-emergence; type: in vivo; details: 10 kg/ha; scale 0 to 3 (complete kill)
[25] = test system: Uncinula necator (vine); test: Fungicidal test against foliar disease D (foliage spray plus soil drench); type: in vivo; details: 100 ppm spray and drench; 10 days
[26] = 0.1% by weight, mustard/paper, 2 days

SMILES	Mortality grading (kill) [1]	Antibacterial activity grading B3 [2]	Antibacterial activity grading B1 [3]	Mortality grading (kill) [4]	Mortality grading (kill) [5]	Antibacterial activity grading B5 [6]	Antibacterial activity grading B2 [7]	Mortality grading (kill) [8]	Mortality grading (kill) [9]	Mortality grading (kill) ([10]; in vivo)	Mortality grading (kill) ([11]; in vivo)	Mortality grading (kill), contact test [12]	Antibacterial activity grading B7 [13]	Mortality grading (kill) [14]	Antibacterial activity grading B6 [15]	Antibacterial activity grading B4 [16]	Mortality grading (kill) [20]	Amount of disease grading, disease C (Table 4) [17]	Amount of disease grading, disease A (Table 4) [19]	Amount of disease grading, disease D (Table 4) [25]	further results
O=[N+]([O-])c1ccc(Nc2c(Cl)c(F)nc(F)c2Cl)c([N+](=O)[O-])c1 [Compound 1, 3,5-dichloro-2,6-difluoro-4(2,4-dinitroanilinopyridine]	0 (O represents less than 30% kill)	3 (0 to 5)	3 (0 to 5)	2 (2 represents 60 - 90% kill)	3 (3 represents over 90% kill)	3 (0 to 5)	3 (0 to 5)	3 (3 represents over 90% kill)	3 (3 represents over 90% kill)	0 (key: O represents less than 30% kill; 1 represents 30 - 49% kill; 2 represents 60 - 90% kill; 3 represents over 90% kill; C indicates a chemosterilant effect.; A indicates an antifeeding effect.)	0 (key: O represents less than 30% kill; 1 represents 30 - 49% kill; 2 represents 60 - 90% kill; 3 represents over 90% kill; C indicates a chemosterilant effect.; A indicates an antifeeding effect.)	0 (O represents less than 30% kill)	3 (0 to 5)	0 (O represents less than 30% kill)	3 (0 to 5)	3 (0 to 5)	–	–	–	–	abnormal growth effects in larva of mosquitos ([14]; in vivo): abnormal growth effects
Fc1nc(F)c(Cl)c(Nc2c(F)c(F)c(F)c3c(F)c(F)c(F)c(F)c23)c1Cl [Compound 20, 3,5-Dichloro-2,6-difluoro-4(1-heptafluoronaphthylamino)pyridine]	3 (3 represents over 90% kill)	3 (0 to 5)	0 (61 to 100)	0 (O represents less than 30% kill)	2 (2 represents 60 - 90% kill)	1 (26 to 60)	3 (0 to 5)	3 (3 represents over 90% kill)	2 (2 represents 60 - 90% kill)	3 (key: O represents less than 30% kill; 1 represents 30 - 49% kill; 2 represents 60 - 90% kill; 3 represents over 90% kill; C indicates a chemosterilant effect.; A indicates an antifeeding effect.)	0 (key: O represents less than 30% kill; 1 represents 30 - 49% kill; 2 represents 60 - 90% kill; 3 represents over 90% kill; C indicates a chemosterilant effect.; A indicates an antifeeding effect.)	0 (O represents less than 30% kill)	2 (6 to 25)	1 (1 represents 30 - 49% kill)	2 (6 to 25)	2 (6 to 25)	0 (O represents less than 30% kill)	–	–	–	Amount of disease grading, disease C [17]: 3 (0 to 5); Amount of disease grading, disease E [18]: 2 (6 to 25); Amount of disease grading, disease A [19]: 3 (0 to 5)
O=[N+]([O-])c1cc(Br)c(Nc2c(Cl)c(F)nc(F)c2Cl)c([N+](=O)[O-])c1 [Compound 40, 4(2-Bromo-4,6-dinitroanilino)-3,5-dichloro-2,6-difluoropyridine]	3 (3 represents over 90% kill)	3 (0 to 5)	2 (6 to 25)	0 (O represents less than 30% kill)	3 (3 represents over 90% kill)	2 (6 to 25)	2 (6 to 25)	3 (3 represents over 90% kill)	3 (3 represents over 90% kill)	0 (key: O represents less than 30% kill; 1 represents 30 - 49% kill; 2 represents 60 - 90% kill; 3 represents over 90% kill; C indicates a chemosterilant effect.; A indicates an antifeeding effect.)	2 (key: O represents less than 30% kill; 1 represents 30 - 49% kill; 2 represents 60 - 90% kill; 3 represents over 90% kill; C indicates a chemosterilant effect.; A indicates an antifeeding effect.)	3 (3 represents over 90% kill)	2 (6 to 25)	3 (3 represents over 90% kill)	1 (26 to 60)	1 (26 to 60)	0 (O represents less than 30% kill)	3 (0 to 5)	0 (61 to 100)	3 (0 to 5)	Damage to plants, post-emergence [21]: 1; Damage to plants, pre-emergence [21]: 3; Amount of disease grading, disease E (Table 4) [18]: 1 (26 to 60); Damage to plants, post-emergence [22]: 0; Damage to plants, pre-emergence [22]: 1; Damage to plants, post-emergence [23]: 0; Damage to plants, pre-emergence [23]: 1; Damage to plants, post-emergence [24]: 3; Damage to plants, pre-emergence [24]: 3
O=[N+]([O-])c1ccc(Nc2c(Cl)c(Cl)nc(Cl)c2Cl)c(C(F)(F)F)c1 [Compound 41, 4(4-Nitro-2-trifluoromethylanilino)-tetrachloropyridine]	3 (3 represents over 90% kill)	2 (6 to 25)	3 (0 to 5)	0 (O represents less than 30% kill)	0 (O represents less than 30% kill)	1 (26 to 60)	0 (61 to 100)	3 (3 represents over 90% kill)	0 (O represents less than 30% kill)	–	–	2 (2 represents 60 - 90% kill)	0 (61 to 100)	3 (3 represents over 90% kill)	1 (26 to 60)	1 (26 to 60)	0 (O represents less than 30% kill)	3 (0 to 5)	0 (61 to 100)	3 (0 to 5)	Mortality grading (kill) [10, 26]: 1 (1 represents 30 - 49% kill); Mortality grading (kill) [11, 26]: 2 (2 represents 60 - 90% kill)
